Several values for one entry are separate records, joined by “and”; a condition that tells them apart may be missing. Equal values may be shown once.
Tested on: cGMP-PDE I
Assay: cGMP-PDE I inhibitory activity (cyclic nucleotide hydrolysis, isolated PDE isozyme)
Format: biochemical, various animal species and man
Conditions: for IC50: values marked * are from two separate experimental runs
Procedure: Multiple isozymic forms of cyclic nucleotide phosphodiesterase (PDE) have been identified in mammalian cells. […] Elevation of intracellular cGMP in vascular smooth muscle triggers a cascade of events that leads to a reduction in muscle tone while elevations in renal tubule cell cGMP stimulates natriuresis and diuresis. Vascular smooth muscle and renal cells contain a phosphodiesterase isozyme that has a low Km (1 μM) for the hydrolysis of cGMP. This isozyme has been referred to as the cGMP-PDE or cGMP-PDE I since it elutes from an anion-exchange sepharose resin in the first peak of PDE activity at a sodium acetate concentration between 150-200 mM. Thus inhibition of the cGMP-PDE isozyme is a viable subcellular mechanism by which increases in cGMP can produce a reduction in total peripheral resistance and a stimulation of natriuresis and diuresis. The development of cGMP-PDE inhibitors represents an approach for the discovery of agents useful for treating heart failure and hypertension. For example, compounds having high inhibitory potency for the cGMP-PDE are expected to lower blood pressure and induce natriuresis and diuresis.
The cGMP-PDE and other PDE isozymes were isolated from cardiovascular tissues (heart and aorta) of various animal species and man by anion-exchange and affinity chromatography as described by Silver et al., Sec. Messeng. Phos. 13:13-25, 1991; PDE activity, in the presence and absence of test compounds was determined essentially as described by Thompson et al., Adv. Cyclic Nucleotide Res. 10:69-92. To determine the potency and selectivity of compounds as PDE inhibitors, compounds are screened for their effect on cyclic nucleotide hydrolysis at 10 μM. If ≥50% inhibition of PDE activity is observed, an IC50 value (concentration of compound causing 50% reduction in PDE activity) and corresponding 95% confidence intervals are generated. The IC50 values are calculated from concentration-response curves as described by Tallarida and Murray, Manual of Pharmacologic Calculations with Computer Programs, Procedure 8, Graded Dose-response, pp. 14-19, Springer-Verlag, N.Y., 1981.

Row | Compound | IC50 | Percent Inhibition cGMP-PDE I (1 μM) | Percent Inhibition cGMP-PDE I (10 μM) | further results
1 | Cc1nn(C2CC3CCC2C3)c2nc(-c3ccncc3)[nH]c(=O)c12 (centres unmarked) [Example 91] | 850 nM | – | – | –
2 | CC(=O)N1CCC(c2nc3n(C4CCCC4)[nH]c(C)c-3c(=O)n2)CC1 [Example 115, 1-Cyclopentyl-3-methyl-6-(1-acetyl-4-piperidinyl)pyrazolo[3,4-d]pyrimidin-4-one] | – | 6% | 51% | –
3 | Cc1nn(C2CCCCC2)c2nc(-c3ccncc3)[nH]c(=O)c12 [Example 3e, 1-Cyclohexyl-3-methyl-6-(4-pyridyl)-pyrazolo[3,4-d]pyimidin-4-one] | 460 nM and 560 nM | – | – | –
4 | O=c1nc(-c2ccncc2)nc2n(C3CCCC3)[nH]c(Cc3ccccc3)c1-2 [Example 15e, 1-Cyclopentyl-3-phenylmethyl-6-(4-pyridyl)-pyrazolo[3,4-d]pyrimidin-4-one] | – | 38% | 43% | –
5 | Cc1[nH]n(Cc2cccc(C(N)=O)c2)c2nc(-c3ccncc3)nc(=O)c1-2 [Example 113, 1-(3-Carbamoylphenylmethyl)-3-methyl-6-(4-pyridyl) pyrazolo[3,4-d]pyrimidin-4-one] | – | 0% | 48% | –
6 | Cc1nn(C2CCOC2)c2nc(-c3ccncc3)[nH]c(=O)c12 (centres unmarked) [Example 101, 1-(3-Tetrahydrofuranyl)-3-methyl-6-(4-pyridyl)-pyrazolo-[3,4-d]pyrimidin-4-one-1/4 hydrate] | 1780 nM | – | – | –
7 | CCc1[nH]n(C2CCCC2)c2nc(-c3cccc(C)n3)nc(=O)c1-2 [Example 2f, 1-cyclopentyl-3-ethyl-6-(6-methyl-2-pyridyl) -pyrazolo-[3,4-d]pyrimidin-4-one] | – | 7% | 53% | –
8 | Cc1nn(Cc2ccccc2Cl)c2nc(-c3ccncc3)[nH]c(=O)c12 [Example 82] | 550 nM | – | – | –
9 | Cc1nn(CCCCCCCCC(=O)O)c2nc(-c3ccncc3)[nH]c(=O)c12 [Example 78] | – | 54% | – | –
10 | CCN(CC)CCCn1nc(C)c2c(=O)[nH]c(-c3ccncc3)nc21 [Example 99, 1-(3-Diethylaminopropyl)-3-methyl-6-(4-pyridyl)pyrazolo[3,4-d]pyrimidin-4-one. 1/2 hydrate] | – | 0% | 12% | –
11 | CC(C)(C)c1nn(C2CCCC2)c2nc(-c3ccncc3)[nH]c(=O)c12 [Example 95] | – | 9% | 32% | –
12 | CCc1[nH]n(C2CCCC2)c2nc(-c3ccncc3OCCOC)nc(=O)c1-2 [Example 131b, 1-Cyclopentyl-3-ethyl-6-(3-(2-methoxyethoxy)-4-pyridyl)pyrazolo[3,4-d]pyrimidin-4-one] | – | 86% | – | Percent Inhibition cGMP-PDE I (0.01 μM): 22%; Percent Inhibition cGMP-PDE I (0.1 μM): 61%
13 | Cc1[nH]n(C2CCCC2)c2nc(-c3cc[nH]c(=O)c3)nc(=O)c1-2 [Example 126b, 1-Cyclopentyl-3-methyl-6-(2-oxo-4-pyridyl)pyrazolo[3,4-d]pyrimidin-4-one] | – | 32% | – | Percent Inhibition cGMP-PDE I (0.1 μM): 0%
14 | Cc1nn(CCCCCCC(=O)O)c2nc(-c3ccncc3)[nH]c(=O)c12 [Example 79] | 4700 nM | – | – | –
15 | CCc1[nH]n(C2CCCC2)c2nc(-c3ccnc(N4CCOCC4)c3)nc(=O)c1-2 [Example 129c, 1-Cyclopentyl-3-ethyl-6-(2-(4-morpholinyl)-4-pyridyl)pyrazolo[3,4-d]pyrimidin-4-one] | – | 64% | – | Percent Inhibition cGMP-PDE I (0.1 μM): 35%
16 | CCc1[nH]n(C2CCCC2)c2nc(-c3ccnc(Cl)c3)nc(=O)c1-2 [Example 125b, 1-Cyclopentyl-3-ethyl-6-(2-chloro-4-pyridyl)pyrazolo[3,4-d]pyrimidin-4-one] | 580 nM | 59% | – | Percent Inhibition cGMP-PDE I (0.1 μM): 27%
17 | CCc1[nH]n(C2CCCC2)c2nc(-c3ccc4nccn4c3)nc(=O)c1-2 [Example 16c, 1-Cyclopentyl-3-ethyl-6-(6-imidazo[1,2-a]pyridinyl)pyrazolo[3,4-d]pyrimidin-4-one] | 780 nM | 69% | – | Percent Inhibition cGMP-PDE I (0.1 μM): 35%
18 | Cc1[nH]n(Cc2ccc(C(N)=O)cc2)c2nc(-c3ccncc3)nc(=O)c1-2 [Example 110, 1-(4-Carbamoylphenylmethyl)-3-methyl-6-(4-pyridyl)pyrazolo[3,4-d]pyrimidin-4-one] | – | 23% | 74% | –
19 | Cc1[nH]n(Cc2cc(NS(=O)(=O)c3cccc4cccnc34)ccc2Cl)c2nc(-c3ccncc3)nc(=O)c1-2 [Example 108, 1-[2-Chloro-5-((8-quinolinylsulfonyl)amino)phenylmethyl]-3-methyl-6-(4-pyridyl)-pyrazolo[3,4-d]pyrimidin-4-one] | – | 38% | 86% | –
20 | CCc1nn(C(C)(C)C)c2nc(-c3ccncc3)[nH]c(=O)c12 [Example 94] | 480 nM | – | – | –

Row | Compound | IC50 | Percent Inhibition cGMP-PDE I (1 μM) | Percent Inhibition cGMP-PDE I (10 μM) | further results
21 | Cc1[nH]n(C2CCCO2)c2nc(-c3ccncc3)nc(=O)c1-2 (centres unmarked) [Example 104, 1-(2-tetrahydrofuranyl)-3-methyl-6-(4-pyridyl)-pyrazolo-[3,4-d]pyrimidin-4-one] | 12400 nM | – | – | –
22 | O=c1[nH]c(-c2ccncc2)nc2c1c(C(F)(F)F)nn2C1CCCC1 [Example 96] | 670 nM | – | – | –
23 | CSc1[nH]n(C2CCCC2)c2nc(-c3ccncc3)nc(=O)c1-2 [Example 19c, 1-Cyclopentyl-3-methylthio-6-(4-pyridyl)pyrazolo[3,4-d]pyrimidin-4-one] | – | 32% | 74% | –
24 | Cc1[nH]n(C)c2nc(-c3ccncc3)nc(=O)c1-2 [Example 103, 1,3-Dimethyl-6-(4-pyridyl)-pyrazolo-[3,4-d]pyrimidin-4-one] | – | 0% | 19% | –
25 | Cc1nn(CC2CCCC2)c2nc(-c3ccncc3)[nH]c(=O)c12 [Example 89] | – | 17% | 77% | –
26 | CCc1nn(C2CCCC2)c2nc(-c3cc(C)nc(-n4ccnc4)c3)[nH]c(=O)c12 [Example 120, 1-Cyclopentyl-3-ethyl-6-[2-(1-imidazolyl)-6-methyl-4-pyridyl]pyrazolo[3,4-d]pyrimidin-4-one-1/4 hydrate] | – | 60% | – | Percent Inhibition cGMP-PDE I (0.1 μM): 16%
27 | Cc1nn(Cc2ccc(C#N)cc2)c2nc(-c3ccncc3)[nH]c(=O)c12 [Example 85] | – | – | 42% | –
28 | Cc1nn(Cc2ccccc2)c2nc(-c3ccncc3)[nH]c(=O)c12 [Example 77] | – | 13% | 80% | –
29 | CN(C)c1[nH]n(C2CCCC2)c2nc(-c3ccncc3)nc(=O)c1-2 [Example 20c, 1-Cyclopentyl-3-dimethylamino-6-(4-pyridyl) pyrazolo[3,4-d]pyrimidin-4-one] | – | 36% | 70% | –
30 | CCc1nn(C2CCCC2)c2nc(-c3cccn4ccnc34)[nH]c(=O)c12 [Example 114c, 1-cyclopentyl-3-ethyl-6-(8-imidazo[1,2-a]pyridine)pyrazolo[3,4-d]pyrimidin-4-one methanesulfonate] | – | 5% | 52% | –
31 | Cc1nn(Cc2cccc(C#N)c2)c2nc(-c3ccncc3)[nH]c(=O)c12 [Example 86] | – | – | 41% | –
32 | CC(C)(C)n1[nH]c(Nc2ccccc2)c2c(=O)nc(-c3ccncc3)nc1-2 [Example 6e, 1-tert-Butyl-3-phenylamino-6-(4-pyridyl)-pyrazolo[3,4-d]-pyrimidin-4-one] | 620 nM | – | – | –
33 | O=c1[nH]c(-c2ccncc2)nc2c1cnn2C1CCCC1 [Example 71] | 3700 nM | – | – | –
34 | Cc1[nH]n(Cc2ccc([N+](=O)[O-])cc2)c2nc(-c3ccncc3)nc(=O)c1-2 [Example 105, 1-(4-Nitrophenylmethyl)-3-methyl-6-(4-pyridyl)pyrazolo[3,4-d]pyrimidin-4-one] | 6700 nM | – | – | –
35 | Cc1[nH]n(C2CCCC2)c2nc(-c3cccc4cccnc34)nc(=O)c1-2 [Example 12c, 1-Cyclopentyl-3-methyl-6-(8-quinolinyl)-pyrazolo-[3,4-d]pyrimidin-4-one] | 690 nM | – | – | –
36 | CCc1[nH]n(C2CCCC2)c2nc(-c3ccnc(-n4ccnc4)c3)nc(=O)c1-2 [Example 121c, 1-Cyclopentyl-3-ethyl-6-[2-(1-imidazolyl)-4-pyridyl]pyrazolo[3,4-d]pyrimidin-4-one] | 240 nM | 68% | – | Percent Inhibition cGMP-PDE I (0.1 μM): 11%
37 | Cc1nn(Cc2cccc(Cl)c2)c2nc(-c3ccncc3)[nH]c(=O)c12 [Example 81] | 200 nM | – | – | –
38 | N#Cc1[nH]n(C2CCCC2)c2nc(-c3ccncc3)nc(=O)c1-2 [Example 100, 1-Cyclopentyl-3-cyano-6-(4-pyridyl)-pyrazolo-[3,4-d]pyrimidin-4-one] | – | 9% | 35% | –
39 | Cc1nn(C2CCCC2O)c2nc(-c3ccncc3)[nH]c(=O)c12 (centres unmarked) [Example 17e] | 2300 nM | – | – | –

Reference: US5541187A, “6-heterocycyclyl pyrazolo[3,4-d]pyrimidin-4-ones and compositions and method of use thereof” (Sterling Winthrop Inc., priority 1993, dated 1996)
